Results from patent US20260083687A1, “COMPOUNDS FOR REDUCING LACTATION AND IMPROVING HEALTH” (AHV International B.V., priority 2022, published 2026).
Where two headings read alike, the source gives them in different places.

What was measured:
[1] = system: cows (Holstein Friesians); assay: Treatment with DPD analogs (organosulfur compounds) and milk yield (Example 8); assay type: in vivo, cow
Experimental: Study design. 36 cows (Holstein Friesians) from 2 farms were used. The feed of the cows was composed of TMR, including corn and grass silage, supplemented with soya and minerals. […] The cows were milked in a milk robot. […] The cows were milked twice a day. The cows were housed in free stables. […] Placebo treatment corresponded to administration of two gel capsules containing 180 ml water.
For this study dosages synthetic compounds (>96% purity) as indicated in table 17 were administered to cows. The objective of this study was to compare the activity of a corresponding dose of the compounds expressed in mol, based on the number of moles that is present in 80 ml di-n-propyl disulfide at 20° C. The number of moles was converted to ml or grams of the tested compounds. For this purpose, the molecular weight and specific density were used in the calculations. The compounds were formulated in the gel capsules as indicated in the previous examples.
Before the various dosages were administered, the milk yields were monitored for at least 5 days.

[2] = system: cows (Holstein Friesians); details: for Milk yield Last milking: before administration; for % reduction after 24 h / % reduction after 48 h / % reduction after 72 h / % reduction after 96 h: vs milk yield before treatment
Experimental: Twelve cows (Holstein Friesians) from 1 farm were used. The start of the dry period of every cow was between 40 to 60 days before calving. The cows were milked twice a day at fixed times and the cows were selected on a milk production of >12.5 litres/day 24 hours before PTSO administering took place. No extra measures were taken to stimulate dry-off, such as changes in feed ration or changes in milking frequency. The cows were milked twice a day. The cows were housed in free stables. A porcine gelatine capsule with PTSO or placebo gel capsule with water were administered 7 to 14 days before the start of the dry-off period.
For this study various dosages synthetic PTSO (>98% purity) were administered to cows with a milk yield of at least 12.5 kg milk per day. The following dosages were applied: 0, 10, 20, 40 ml of pure PTSO. For each dosage 3 cows were used.
Before the various dosages were administered the milk yield was monitored for 14 days. The gel capsules were orally administered by a bolus shooter, the gel capsule for the placebo group contained tap water. Administering of a capsule took place between the morning and afternoon milking. On t=14 days the PTSO-containing capsules and the placebo capsules were administered and the milk yield was monitored 48 hours more.

[3] = system: goats; details: single injection 5.6 mg at dry-off; cited from earlier work
[4] = system: dairy cows; details: single injection 5.6 mg at dry-off, cited from earlier work
[5] = system: cows; details: cited from earlier work
[6] = individual cows, dose per compound as listed in E284
[7] = vs milk yield before treatment, individual cows, dose per compound as listed in E284

Which results are given for `CCCSS(=O)(=O)CCC` [PTSO, di-n-propyl thiosulfonate]?
% reduction after 24 h average (milk yield) ([1]; 24 h after one oral gel capsule, dose equimolar to 80 ml di-n-propyl disulfide, negative value = increase in yield): 61%; % reduction after 48 h average (milk yield) ([1]; 48 h after one oral gel capsule, dose equimolar to 80 ml di-n-propyl disulfide, negative value = increase in yield): 71%; % reduction after 72 h average (milk yield) ([1]; 72 h after one oral gel capsule, dose equimolar to 80 ml di-n-propyl disulfide, negative value = increase in yield): 41%; % reduction after 96 h average (milk yield) ([1]; 96 h after one oral gel capsule, dose equimolar to 80 ml di-n-propyl disulfide, negative value = increase in yield): 4.7%; average reduction after 24, 48 and 72 h (%) (milk yield) ([1]; average of 24, 48 and 72 h after one oral gel capsule, dose equimolar to 80 ml di-n-propyl disulfide): 58%; Average reduction after 24 and 48 h (%) (milk yield) ([1]; average of 24 and 48 h after one oral gel capsule, dose equimolar to 80 ml di-n-propyl disulfide): 66%; Milk yield (kg) Last milking ([1]; before administration, individual cows, single oral gel capsule dose per cow (ml unless g): diethyl disulfide 63, di-n-propyl disulfide 80, diisopropyl disulfide 160, di-n-butyl disulfide 100, dibenzyl disulfide 102, diethyl sulfide 55, di-n-propyl sulfide 72, diisopropyl sulfide 74, di-n-butyl sulfide 90, dibenzyl sulfide 96 g, diphenyl sulfide 85, di-n-propyl trisulfide 98, di-n-propyl sulfone 6): 15.7 kg; Average reduction after 24 and 48 h (%) [1, 6]: 66%; Milk yield (kg) After 24 h [1, 6]: 7.7 kg; Milk yield (kg) After 48 h [1, 6]: 4.6 kg; Milk yield (kg) After 72 h [1, 6]: 9.3 kg; Milk yield (kg) After 96 h [1, 6]: 14.5 kg; average reduction after 24, 48 and 72 h (%) [1, 6]: 58%; % reduction after 24 h [1, 7]: 61%; % reduction after 48 h [1, 7]: 71%; % reduction after 72 h [1, 7]: 41%; % reduction after 96 h [1, 7]: 4.7%; Average reduction 24 and 48 h (%) ([2]; 10 ml PTSO): −5%; Milk yield After 24 h ([2]; 10 ml PTSO): 19.89 kg; Milk yield After 48 h ([2]; 10 ml PTSO): 19.51 kg; Milk yield After 72 h ([2]; 10 ml PTSO): 18.94 kg; Milk yield After 96 h ([2]; 10 ml PTSO): 18.67 kg; Milk yield Last milking ([2]; 10 ml PTSO): 18.76 kg; % reduction after 24 h ([2]; 10 ml PTSO): −6%; % reduction after 48 h ([2]; 10 ml PTSO): −4%; % reduction after 72 h ([2]; 10 ml PTSO): −0.03%; % reduction after 96 h ([2]; 10 ml PTSO): 0.01%; Average reduction 24 and 48 h (%) ([2]; 20 ml PTSO): 66%; Milk yield After 24 h ([2]; 20 ml PTSO): 7.7 kg; Milk yield After 48 h ([2]; 20 ml PTSO): 4.56 kg; Milk yield After 72 h ([2]; 20 ml PTSO): 9.31 kg; Milk yield After 96 h ([2]; 20 ml PTSO): 14.99 kg; effect on milk yield compared to the milk yield before treatment ([2]; 20 ml PTSO): clear lowering on milk yield; Milk yield Last milking ([2]; 20 ml PTSO): 15.72 kg; % reduction after 24 h ([2]; 20 ml PTSO): 61%; % reduction after 48 h ([2]; 20 ml PTSO): 71%; % reduction after 72 h ([2]; 20 ml PTSO): 41%; % reduction after 96 h ([2]; 20 ml PTSO): 4.7%; Average reduction 24 and 48 h (%) ([2]; 40 ml PTSO): 55%; Milk yield After 24 h ([2]; 40 ml PTSO): 8.89 kg; Milk yield After 48 h ([2]; 40 ml PTSO): 7.04 kg; Milk yield After 72 h ([2]; 40 ml PTSO): 9.06 kg; Milk yield After 96 h ([2]; 40 ml PTSO): 15.87 kg; Milk yield Last milking ([2]; 40 ml PTSO): 16.77 kg; % reduction after 24 h ([2]; 40 ml PTSO): 52%; % reduction after 48 h ([2]; 40 ml PTSO): 58%; % reduction after 72 h ([2]; 40 ml PTSO): 46%; % reduction after 96 h ([2]; 40 ml PTSO): 5.4%; time to complete recovery of milk yield ([2]; after PTSO administration): 3 to 4 days; damage to the udder ([2]; bovine, in vivo): does not cause any damage to the udder; dosage at which the effect on milk yield became visible ([2]; single oral dose): ≥ 20 mL; dosage giving maximum response (milk yield decrease) ([2]; single oral dose): ≥ 20 mL

What does the source list for `C=CCN1C[C@H](C(=O)N(CCCN(C)C)C(=O)NCC)C[C@@H]2c3cccc4[nH]cc(c34)C[C@H]21` [cabergoline]?
milk reduction [3]: 28%; duration of reduced prolactin after dry-off [4]: up to 8 days; milk reduction ([4]; dairy cows): 22%

With `CCCN1CC(NS(=O)(=O)N(CC)CC)CC2Cc3c(O)cccc3CC21` (stereo not shown) [quinagolide] as the compound, how does the “lower milk production compared with the placebo group” value ([5]; 1 mg daily i.m. during 9 weeks, early lactation, last 4 weeks of treatment) read?
Its value is 5.3 kg/day.

What about the Milk production ([5]; 4 mg i.m. twice a day from 5 days before until 13 days after dry-off, placebo 25 kg/day) of the same compound?
The Milk production was 18 kg/day.

What about the “decreased milk production compared with the placebo group” value ([5]; Ollier, Zhao and Lacasse (2014)) of the same compound?
The value was 7 L.
